Measurements as given in the NIST ThermoML archive (doi:10.1021/je5009679).

Conditions: Liquid; for viscosity: Concentric cylinders viscometry

CCn1cc[n+](C)c1.CO[PH](=O)[O-] [1-ethyl-3-methylimidazolium methyl phosphonate]
101.33 kPa
Conditions	viscosity [mPa·s]
293.15 K	156.4
303.15 K	89.9
313.15 K	56.11
323.15 K	37.41
333.15 K	26.3
343.15 K	19.32

Conditions	mass density [kg/m3]
293.15 K, 101.33 kPa, Vibrating tube method	1198.3
303.15 K, 101.33 kPa, Vibrating tube method	1191.7
311.2 K, 10000 kPa, Bellows volumetry	1189.6
311.2 K, 20000 kPa, Bellows volumetry	1193.3
311.2 K, 30000 kPa, Bellows volumetry	1197.1
311.2 K, 40000 kPa, Bellows volumetry	1200.8
311.2 K, 50000 kPa, Bellows volumetry	1204.4
311.2 K, 60000 kPa, Bellows volumetry	1207.8
311.2 K, 70000 kPa, Bellows volumetry	1211.3
311.2 K, 80000 kPa, Bellows volumetry	1214.6
311.2 K, 90000 kPa, Bellows volumetry	1217.9
311.2 K, 100000 kPa, Bellows volumetry	1221
311.2 K, 110000 kPa, Bellows volumetry	1224.2
311.2 K, 120000 kPa, Bellows volumetry	1227.2
311.2 K, 130000 kPa, Bellows volumetry	1230.3
311.2 K, 140000 kPa, Bellows volumetry	1233.1
311.2 K, 150000 kPa, Bellows volumetry	1236.1
311.2 K, 160000 kPa, Bellows volumetry	1238.9
311.2 K, 170000 kPa, Bellows volumetry	1241.7
311.2 K, 180000 kPa, Bellows volumetry	1244.5
311.2 K, 190000 kPa, Bellows volumetry	1247.2
311.2 K, 200000 kPa, Bellows volumetry	1249.9
313.15 K, 101.33 kPa, Vibrating tube method	1185.3
323.15 K, 101.33 kPa, Vibrating tube method	1178.8
330.9 K, 10000 kPa, Bellows volumetry	1176.8
330.9 K, 20000 kPa, Bellows volumetry	1180.9
330.9 K, 30000 kPa, Bellows volumetry	1184.9
330.9 K, 40000 kPa, Bellows volumetry	1188.8
330.9 K, 50000 kPa, Bellows volumetry	1192.5
330.9 K, 60000 kPa, Bellows volumetry	1196.1
330.9 K, 70000 kPa, Bellows volumetry	1199.8
330.9 K, 80000 kPa, Bellows volumetry	1203.3
330.9 K, 90000 kPa, Bellows volumetry	1206.6
330.9 K, 100000 kPa, Bellows volumetry	1210
330.9 K, 110000 kPa, Bellows volumetry	1213.3
330.9 K, 120000 kPa, Bellows volumetry	1216.4
330.9 K, 130000 kPa, Bellows volumetry	1219.5
330.9 K, 140000 kPa, Bellows volumetry	1222.5
330.9 K, 150000 kPa, Bellows volumetry	1225.4
330.9 K, 160000 kPa, Bellows volumetry	1228.3
330.9 K, 170000 kPa, Bellows volumetry	1231.2
330.9 K, 180000 kPa, Bellows volumetry	1234
330.9 K, 190000 kPa, Bellows volumetry	1236.7
330.9 K, 200000 kPa, Bellows volumetry	1239.6
333.15 K, 101.33 kPa, Vibrating tube method	1172.5
343.15 K, 101.33 kPa, Vibrating tube method	1166.1
351.3 K, 10000 kPa, Bellows volumetry	1164.2
351.3 K, 20000 kPa, Bellows volumetry	1168.7
351.3 K, 30000 kPa, Bellows volumetry	1172.8
351.3 K, 40000 kPa, Bellows volumetry	1176.9
351.3 K, 50000 kPa, Bellows volumetry	1180.9
351.3 K, 60000 kPa, Bellows volumetry	1184.7
351.3 K, 70000 kPa, Bellows volumetry	1188.4
351.3 K, 80000 kPa, Bellows volumetry	1192
351.3 K, 90000 kPa, Bellows volumetry	1195.5
351.3 K, 100000 kPa, Bellows volumetry	1198.9
351.3 K, 110000 kPa, Bellows volumetry	1202.1
351.3 K, 120000 kPa, Bellows volumetry	1205.4
351.3 K, 130000 kPa, Bellows volumetry	1208.7
351.3 K, 140000 kPa, Bellows volumetry	1211.8
351.3 K, 150000 kPa, Bellows volumetry	1214.8
351.3 K, 160000 kPa, Bellows volumetry	1217.8
351.3 K, 170000 kPa, Bellows volumetry	1220.8
